Experimental findings from ChEMBL document CHEMBL5120920, “A Mitochondria-Targeted Phenylbutyric Acid Prodrug Confers Drastically Improved Anticancer Activities” (J Med Chem, 2022) are described below.

A word on the IC50: it is the point on the concentration scale where inhibition reaches its midpoint.

One data set relates to A549. Put plainly: Antiproliferative activity against human A549 cells assessed as inhibition of cell viability incubated for 72 hrs by MTT assay. It counts as functional, cell-based. Conditions: A549, 72 h. (In general: Tetrazolium dyes change colour on reduction, which living cells bring about.)
Data set [1] relates to A-375. Put plainly: Antiproliferative activity against human A-375 cells assessed as inhibition of cell viability incubated for 72 hrs by MTT assay. It counts as functional, cell-based. To be noted: A-375, 72 h.
Another data set has as its system MCF7. Nature of the data set: Antiproliferative activity against human MCF7 cells assessed as inhibition of cell viability incubated for 72 hrs by MTT assay. The class given is functional, cell-based. Conditions: MCF7, 72 h.
The test system of a further data set is MDA-MB-231. Nature of the data set: Antiproliferative activity against human MDA-MB-231 cells assessed as inhibition of cell viability incubated for 72 hrs by MTT assay. It counts as functional, cell-based. Conditions: MDA-MB-231, 72 h.
A short description of data set [2]: Cytotoxicity against HEK293T cells assessed as cell growth inhibition measured after 72 hrs by MTT assay. It counts as toxicity, cell-based, HEK-293T. To be noted: human.
A short description of data set [3]: Cytotoxicity against human HaCaT cells assessed as cell growth inhibition measured after 72 hrs by MTT assay. The class given is toxicity, cell-based.
A short description of data set [4]: Cytotoxicity against human L02 cells assessed as cell growth inhibition measured after 72 hrs by MTT assay. It counts as toxicity, cell-based.
The nature of data set [5]: Cytotoxicity against HUVEC assessed as cell growth inhibition measured after 72 hrs by MTT assay. It counts as toxicity, cell-based. To be noted: human.
Data set [6] concerns A-375. Nature of the data set: Induction of cell cycle arrest in human A-375 cells assessed as accumulation at S phase at 10 uM incubated for 24 hrs by PI staining based flow cytometry analysis (reference value: 24.01 %). The class given is functional.
Data set [7] relates to A-375. Nature of the data set: Induction of cell cycle arrest in human A-375 cells assessed as accumulation at G2 phase at 10 uM incubated for 24 hrs by PI staining based flow cytometry analysis (reference value: 7.92 %). It counts as functional.
For data set [8], the system named is A-375. Nature of the data set: Induction of cell cycle arrest in human A-375 cells assessed as accumulation at G1 phase at 10 uM incubated for 24 hrs by PI staining based flow cytometry analysis (reference value: 68.07 %). The class given is functional.

`O=C(CCC[P+](c1ccccc1)(c1ccccc1)c1ccccc1)NC(COC(=O)CCCc1ccccc1)(COC(=O)CCCc1ccccc1)COC(=O)CCCc1ccccc1`: the IC50 was 0.65 µM in the data set on A549, 1.29 µM with A-375 [1], 0.62 µM in the data set on MCF7 and 1.28 µM in the data set on MDA-MB-231.
For `O=C(O)CCCCCCC[P+](c1ccccc1)(c1ccccc1)c1ccccc1` the same measures were > 20 µM, > 20 µM, > 20 µM and > 20 µM.
`O=C(O)CCCC[P+](c1ccccc1)(c1ccccc1)c1ccccc1`: the half-inhibitory concentration (IC50) in the data set with A549, with A-375 [1], in the data set with MCF7 and in the data set on MDA-MB-231 was > 20 µM in each case.
Regarding `O=C(CCCc1ccccc1)NCC(CNC(=O)CCCc1ccccc1)(CNC(=O)CCCc1ccccc1)NC(=O)CCCCCCCCC[P+](c1ccccc1)(c1ccccc1)c1ccccc1`, the IC50 with A549 was determined as 0.81 µM; in the data set on A-375 [1], 0.42 µM; with MCF7, 0.54 µM; in the data set with MDA-MB-231 it was 0.31 µM.
On the same counts, the results for `O=C(CCCCC[P+](c1ccccc1)(c1ccccc1)c1ccccc1)NC(COC(=O)CCCc1ccccc1)(COC(=O)CCCc1ccccc1)COC(=O)CCCc1ccccc1` are 1.08 µM, 4.66 µM, 0.91 µM and 2.68 µM.
On the same counts, the results for `O=C(CCCc1ccccc1)NCC(CNC(=O)CCCc1ccccc1)(CNC(=O)CCCc1ccccc1)NC(=O)CCCC[P+](c1ccccc1)(c1ccccc1)c1ccccc1` are 2.15 µM, 232 µM, 2.02 µM and 3.51 µM.
On the same counts, the results for `O=C(CCCc1ccccc1)NCC(CNC(=O)CCCc1ccccc1)(CNC(=O)CCCc1ccccc1)NC(=O)CCCCCCCCCCC[P+](c1ccccc1)(c1ccccc1)c1ccccc1` are 0.57 µM, 0.36 µM, 0.44 µM and 0.24 µM.
On to `COc1cccc([P+](CCCCCCCCCC(=O)NC(CNC(=O)CCCc2ccccc2)(CNC(=O)CCCc2ccccc2)CNC(=O)CCCc2ccccc2)(c2cccc(OC)c2)c2cccc(OC)c2)c1`, for which the IC50 was 0.97 µM with A549, 0.66 µM with A-375 [1], 0.79 µM in the data set with MCF7 and 0.57 µM in the data set on MDA-MB-231.
For `COc1cccc([P+](CCCCCCCCCC(=O)O)(c2cccc(OC)c2)c2cccc(OC)c2)c1` the same measures were > 20 µM, > 20 µM, > 20 µM and > 20 µM.
For `O=C(CCCc1ccccc1)NCC(CNC(=O)CCCc1ccccc1)(CNC(=O)CCCc1ccccc1)NC(=O)CCC[P+](c1ccccc1)(c1ccccc1)c1ccccc1` the same measures were 624 µM, 4.56 µM, 2.72 µM and 9.27 µM.
For `O=C(O)CC[P+](c1ccccc1)(c1ccccc1)c1ccccc1` the same measures were > 20 µM, > 20 µM, > 20 µM and > 20 µM.
As for `O=C(CC[P+](c1ccccc1)(c1ccccc1)c1ccccc1)NC(COC(=O)CCCc1ccccc1)(COC(=O)CCCc1ccccc1)COC(=O)CCCc1ccccc1`, the IC50 was determined as 1.01 µM with A549, 1.75 µM in the data set on A-375 [1], 0.97 µM in the data set with MCF7 and 2.59 µM with MDA-MB-231.
Regarding `O=C(CCCc1ccccc1)NCC(CNC(=O)CCCc1ccccc1)(CNC(=O)CCCc1ccccc1)NC(=O)CC[P+](c1ccccc1)(c1ccccc1)c1ccccc1`, the IC50 in the data set with A549 worked out at 5.3 µM; in the data set with A-375 [1], 5.05 µM; in the data set on MCF7, 3.34 µM; in the data set with MDA-MB-231, 9.64 µM.
On the same counts, the results for `N#Cc1ccc([P+](CCCCCCCCCC(=O)NC(CNC(=O)CCCc2ccccc2)(CNC(=O)CCCc2ccccc2)CNC(=O)CCCc2ccccc2)(c2ccc(C#N)cc2)c2ccc(C#N)cc2)cc1` are 4.06 µM, > 10 µM, 8.56 µM and 3.96 µM.
For the molecule `O=C(CCCc1ccccc1)NCC(CNC(=O)CCCc1ccccc1)(CNC(=O)CCCc1ccccc1)NC(=O)CCCCCCCCC[P+](c1ccc(F)cc1)(c1ccc(F)cc1)c1ccc(F)cc1`, the IC50 in the data set on A549 worked out at 2.19 µM; with A-375 [1], 1.29 µM; in the data set with MCF7 it was 2.26 µM; with MDA-MB-231, 1.28 µM.
Consider `COc1cccc2c1C(=O)c1c(O)c3c(c(O)c1C2=O)C[C@@](O)(C(=O)CO)C[C@@H]3O[C@H]1C[C@H](N)[C@H](O)[C@H](C)O1` [DOXORUBICIN], for which the half-maximal inhibitory concentration (IC50) with A549 stood at 0.42 µM; in the data set with A-375 [1] it was 0.33 µM; with MCF7 it was 0.4 µM; in the data set with MDA-MB-231, 0.47 µM.
With `Cc1ccc([P+](CCCCCCCCCC(=O)O)(c2ccc(C)cc2)c2ccc(C)cc2)cc1`, the IC50 in the data set with A549, in the data set on A-375 [1], in the data set on MCF7 and in the data set with MDA-MB-231 was > 20 µM throughout.
Consider `COC(=O)CCCc1ccccc1`, for which the IC50 in the data set on A-375 [1] was > 2000 µM.
For `O=C(CCCc1ccccc1)NCC(CNC(=O)CCCc1ccccc1)(CNC(=O)CCCc1ccccc1)NC(=O)CCCCCCC[P+](c1ccccc1)(c1ccccc1)c1ccccc1`, the IC50 amounted to 1.42 µM in the data set with A549, 1.19 µM in the data set on A-375 [1], 1.31 µM in the data set with MCF7 and 0.59 µM with MDA-MB-231.
As for `O=C(O)CCC[P+](c1ccccc1)(c1ccccc1)c1ccccc1`, the IC50 in the data set on A549, with A-375 [1], in the data set with MCF7 and in the data set with MDA-MB-231 was > 20 µM each time.
`N#Cc1ccc([P+](CCCCCCCCCC(=O)O)(c2ccc(C#N)cc2)c2ccc(C#N)cc2)cc1`: the IC50 in the data set with A549, in the data set on A-375 [1], in the data set with MCF7 and with MDA-MB-231 was > 20 µM in each case.
`CN(C)c1ccc([P+](CCCCCCCCCC(=O)O)(c2ccc(N(C)C)cc2)c2ccc(N(C)C)cc2)cc1`: the IC50 was 1.87 µM with A549, 1.25 µM with A-375 [1], 1.19 µM in the data set on MCF7 and 1.94 µM in the data set with MDA-MB-231.
As for `Cc1ccc([P+](CCCCCCCCCC(=O)NC(CNC(=O)CCCc2ccccc2)(CNC(=O)CCCc2ccccc2)CNC(=O)CCCc2ccccc2)(c2ccc(C)cc2)c2ccc(C)cc2)cc1`, the IC50 in the data set on A549 worked out at 0.73 µM; with A-375 [1] it was 0.62 µM; with MCF7 it was 0.5 µM; with MDA-MB-231, 0.44 µM.
`O=C(CCCc1ccccc1)NCC(CNC(=O)CCCc1ccccc1)(CNC(=O)CCCc1ccccc1)NC(=O)CCCCCCCCC[P+](c1ccc(C(F)(F)F)cc1)(c1ccc(C(F)(F)F)cc1)c1ccc(C(F)(F)F)cc1`: the IC50 at 72 h in data set [2], in [3], in data set [4] and in data set [5] was > 20 µM in each case. The IC50 was found to be 2.11 µM with A549, 1.98 µM in the data set on A-375 [1], 1.91 µM with MCF7 and 2.19 µM with MDA-MB-231.
With `O=C(CCCC[P+](c1ccccc1)(c1ccccc1)c1ccccc1)NC(COC(=O)CCCc1ccccc1)(COC(=O)CCCc1ccccc1)COC(=O)CCCc1ccccc1`, the IC50 was determined as 1.03 µM in the data set on A549, 2.79 µM with A-375 [1], 0.64 µM with MCF7 and 1.57 µM in the data set on MDA-MB-231.
On to `O=C(O)CCCCCCCCC[P+](c1ccccc1)(c1ccccc1)c1ccccc1`, for which the IC50 with A549, with A-375 [1], with MCF7 and in the data set with MDA-MB-231 was > 20 µM throughout.
With `O=C(O)CCCCCCCCCCC[P+](c1ccccc1)(c1ccccc1)c1ccccc1`, the IC50 in the data set on A549, in the data set on A-375 [1], with MCF7 and in the data set with MDA-MB-231 was > 20 µM throughout.
For the molecule `CCOC(=O)CCCc1ccccc1`, the IC50 in the data set with A-375 [1] was > 2000 µM.
With `O=C(O)CCCCCCCCC[P+](c1ccc(F)cc1)(c1ccc(F)cc1)c1ccc(F)cc1`, the IC50 with A549, with A-375 [1], with MCF7 and in the data set with MDA-MB-231 was > 20 µM throughout.
As to `O=C(CCCc1ccccc1)NCC(CNC(=O)CCCc1ccccc1)(CNC(=O)CCCc1ccccc1)NC(=O)CCCCC[P+](c1ccccc1)(c1ccccc1)c1ccccc1`, the IC50 came to 7.7 µM with A549, 3.26 µM in the data set with A-375 [1], 2.46 µM in the data set on MCF7 and 3.62 µM in the data set with MDA-MB-231.
With `O=C(O)CCCCCCCCC[P+](c1ccc(C(F)(F)F)cc1)(c1ccc(C(F)(F)F)cc1)c1ccc(C(F)(F)F)cc1.[Br-]`, the IC50 in the data set with A549, with A-375 [1], in the data set with MCF7 and in the data set on MDA-MB-231 was > 20 µM each time. Moreover, the Activity in the data set with A-375 [6] is listed as 19.88%; with A-375 [7] it was 11.68%; in the data set with A-375 [8], 68.44%.
For `O=C(O)CCCCC[P+](c1ccccc1)(c1ccccc1)c1ccccc1`, the half-maximal inhibitory concentration (IC50) with A549, in the data set with A-375 [1], in the data set with MCF7 and in the data set on MDA-MB-231 was > 20 µM in each case.
